Source: PubChem BioAssay AID1648 (Sanford-Burnham Center for Chemical Genomics, 2009)
The source made the active and inactive calls. The rule behind the calls is not given here.

The compounds below were run against Serine/threonine-protein kinase mTOR (Homo sapiens) (UniProt P42345) (assay: binders of mTOR FRB domain, biophysical, NMR (AID 1648)). Details: NMR binding to FRB domain, chemical shift.
Chain of Serine/threonine-protein kinase mTOR (Homo sapiens) (P42345 2015-2114): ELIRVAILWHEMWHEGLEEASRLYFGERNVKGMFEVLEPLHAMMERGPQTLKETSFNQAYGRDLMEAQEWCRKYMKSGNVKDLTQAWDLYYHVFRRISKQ
With `C[n+]1cccc(C(=O)[O-])c1` the Kd was > 4 mM (inactive). `CC(=O)c1ccc(Cc2cnc(N)s2)cc1` was tested, and the Kd was > 4 mM (inactive). In the case of `Cc1ccc(S(=O)(=O)CCc2ccccn2)cc1`, the Kd was > 4 mM (inactive). For `O=C(NCc1cccs1)c1nn2cccnc2c1Cl`, the Kd was > 4 mM (inactive). With `CCn1nnc(NC(=O)c2cc3ccccc3o2)n1` the Kd was > 4 mM (inactive). `CCC(C)C(=O)O[C@H]1[C@H](O)C2C(CN3CC(C)CCC3[C@@]2(C)O)C2C[C@]34O[C@]5(O)C(OC(=O)C(C)(O)C(C)O)CC[C@@]3(C)C5C(OC(C)=O)[C@@H](OC(C)=O)C4[C@@]21O` (some centres not stated) was tested, and the Kd was > 4 mM (inactive). With `COCC(=O)NC1CC(C)(C)NC(C)(C)C1` the Kd was > 4 mM (inactive). `Cc1ccc(S(=O)(=O)CC(N)=O)cc1` was tested, and the Kd was > 4 mM (inactive). With `CC1(C)CC2C1CC[C@]1(C)CCC3C(C(=O)O)CC(=O)O[C@@]32C1` (some centres not stated) the Kd was > 4 mM (inactive). `Cn1c([O-])c([N+](C)(C)C)c(=O)n(C)c1=O` was tested, and the Kd was > 4 mM (inactive). In the case of `COc1cccc(S(=O)(=O)Nc2cccnc2)c1`, the Kd was > 4 mM (inactive). With `CN1CC(=O)Nc2ccc([N+](=O)[O-])cc2C1=O` the Kd was > 4 mM (inactive). `COC(=O)c1cncn1C` was tested, and the Kd was > 4 mM (inactive). `O=c1/c(=C/c2cccs2)sc2ncnn12` was tested, and the Kd was > 4 mM (inactive). For `OCc1ccc(-n2ccnc2)cc1`, the Kd was > 4 mM (inactive). In the case of `O=C(O[C@@H]1Cc2c(O)cc(O)cc2O[C@@H]1c1cc(O)c(O)c(O)c1-c1c([C@H]2Oc3cc(O)cc(O)c3C[C@H]2O)cc(O)c(O)c1O)c1cc(O)c(O)c(O)c1`, the Kd was > 4 mM (inactive). For `Cc1oc(-c2ccccc2)cc1CO`, the Kd was > 4 mM (inactive). For `CC(CCC(=O)O)[C@H]1CCC2C3CC[C@@H]4C[C@H](O)CC[C@]4(C)C3C[C@H](O)[C@@]21C` (some centres not stated), the Kd was > 4 mM (inactive). In the case of `O=C(Nc1cccc(Cl)c1)c1cnn2cccnc12`, the Kd was > 4 mM (inactive). For `CNC(=O)n1ccc(C(=O)N2CCCCC2)n1`, the Kd was > 4 mM (inactive). For `Nc1ncnc(NCCCO)c1[N+](=O)[O-]`, the Kd was > 4 mM (inactive). `N#CCN1C(=O)c2ccccc2S1(=O)=O` was tested, and the Kd was > 4 mM (inactive). With `COc1cc(S(=O)(=O)Nc2cccnc2)ccc1F` the Kd was > 4 mM (inactive). With `COc1ccc2c(c1)OC1(O)COc3cc(OC)c(OC)cc3C1=C2` (configuration not stated) the Kd was > 4 mM (inactive). `CC(=O)NC(=S)Nc1ccccc1C(N)=O` was tested, and the Kd was > 4 mM (inactive). With `Nc1ccc2c(c1)N1CCN=C1S2` the Kd was > 4 mM (inactive). With `CC(=O)Nc1ccc(C)cc1NC(C)=O` the Kd was > 4 mM (inactive). For `Fc1ccc(-c2n[nH]c(=S)n2CC2CCCO2)cc1` (configuration not stated), the Kd was > 4 mM (inactive). With `O=C(Nc1nnc(-c2cccnc2)o1)c1ccccc1F` the Kd was > 4 mM (inactive). For `COc1cc(-c2coc3cc(OCc4ccccc4)c(OC)c(O)c3c2=O)cc(O)c1OC`, the Kd was > 4 mM (inactive). For `COc1ccc2c(c1)OCC(Cc1ccc(OC)c(OC(C)=O)c1)C2=O` (configuration not stated), the Kd was > 4 mM (inactive). For `COc1ccc(C2(CN)CCOCC2)cc1OC`, the Kd was > 4 mM (inactive). `Cc1nn(C)c2sc(C(=O)O)cc12` was tested, and the Kd was > 4 mM (inactive). In the case of `Cc1ccc2c(c1)CCCN2C(=O)c1c(C)noc1C`, the Kd was > 4 mM (inactive). For `CC(=O)Oc1ccc(O)cc1`, the Kd was > 4 mM (inactive). In the case of `CN1C(=O)c2ccc(C(=O)NC3CCCCC3)cc2C1=O`, the Kd was > 4 mM (inactive). `Cc1cc(C)n2nc(C(=O)Nc3cccnc3)nc2n1` was tested, and the Kd was > 4 mM (inactive). In the case of `O=C1NC(=S)NC(=O)C1=Cc1ccccc1O`, the Kd was > 4 mM (inactive). With `COc1ccc(-c2ccc(OC)cc2C(=O)O)cc1` the Kd was > 4 mM (inactive). `CC1CN(Cc2ccccn2)CCC1=O` (configuration not stated) was tested, and the Kd was > 4 mM (inactive). `CC(=O)NC(C)C12CC3CC(CC(C(=O)O)(C3)C1)C2` (configuration not stated) was tested, and the Kd was > 4 mM (inactive). For `Cc1noc(C)c1C(=O)Nc1cccnc1`, the Kd was > 4 mM (inactive). In the case of `CC1=CC(=O)C2C(C)(C)CCC[C@]2(C)[C@@]1(O)CCc1ccoc1` (some centres not stated), the Kd was > 4 mM (inactive). With `Nc1ccc(Cc2ccc(N)cc2)cc1` the Kd was > 4 mM (inactive). For `C[C@H](CCC(=O)O)[C@H]1CCC2C3C(CC[C@@]21C)[C@@]1(C)CC[C@@H](O)C[C@H]1C[C@H]3O` (some centres not stated), the Kd was > 4 mM (inactive). `C=C(C)[C@H]1CC=C(C(=O)O)CC1` was tested, and the Kd was > 4 mM (inactive). In the case of `O=[N+]([O-])c1cccc(CN2CCC(O)CC2)c1`, the Kd was > 4 mM (inactive). In the case of `CC1=NN(c2ccc(N)cc2)C(=O)C1`, the Kd was > 4 mM (inactive). With `CC1(C)C2CC[C@]3(C)C(C(=O)C=C4[C@@H]5C[C@@](C)(C(=O)O)CC[C@]5(C)CC[C@]43C)[C@@]2(C)CC[C@@H]1O` (some centres not stated) the Kd was > 4 mM (inactive). For `O=C1NC(=Nc2ccccc2)S/C1=C/c1cccnc1`, the Kd was > 4 mM (inactive). In the case of `COC1=C(OC)C(=O)C(C/C=C(\C)CC/C=C(\C)CC/C=C(\C)CC/C=C(/C)CC/C=C(\C)CC/C=C(\C)CC/C=C(\C)CC/C=C(\C)CC/C=C(\C)CCC=C(C)C)=C(C)C1=O`, the Kd was > 4 mM (inactive). `Cc1cc(C)n(C/C=C/Cn2nc(C)cc2C)n1` was tested, and the Kd was > 4 mM (inactive). With `C=CCc1ccc2c(c1)OCO2` the Kd was > 4 mM (inactive). `O=c1[nH]cc(S(=O)(=O)N2CCc3ccccc32)c(=O)[nH]1` was tested, and the Kd was > 4 mM (inactive). In the case of `Cc1nc(-c2cc(C(=O)O)no2)cs1`, the Kd was > 4 mM (inactive). For `O=C(O)c1ccc(CN2CCCCC2)o1`, the Kd was > 4 mM (inactive). For `O=C(Nc1ccon1)c1ccc2c(c1)OCO2`, the Kd was > 4 mM (inactive).
